Data from ChEMBL document CHEMBL5154644, “Design, Synthesis, and Structure-Activity Relationship Optimization of Pyrazolopyrimidine Amide Inhibitors of Phosphoinositide 3-Kinase γ (PI3Kγ)” (J Med Chem, 2022).
Calls of active or inactive are those of the source. No cut-off for these calls is given here.

Columns and labels:
[1] = MRT (infinity) in C57BL/6 mouse at 0.5 mg/kg, iv; type: ADME, organism-based; conditions: in vivo
[2] = target: T1, Phosphatidylinositol 4,5-bisphosphate 3-kinase catalytic subunit gamma isoform (Homo sapiens, UniProt P48736); test: Inhibition of PI3Kgamma (unknown origin) in […] stimulated human THP-1 cells assessed as reduction in Akt phosphorylation level at Ser473 residue preincubated for 60 mins followed by rhMCP-1 stimulation and measured after 2 mins by AlphaLisa assay; type: cell-based
Target sequence in this assay (P48736 whole entry, canonical isoform): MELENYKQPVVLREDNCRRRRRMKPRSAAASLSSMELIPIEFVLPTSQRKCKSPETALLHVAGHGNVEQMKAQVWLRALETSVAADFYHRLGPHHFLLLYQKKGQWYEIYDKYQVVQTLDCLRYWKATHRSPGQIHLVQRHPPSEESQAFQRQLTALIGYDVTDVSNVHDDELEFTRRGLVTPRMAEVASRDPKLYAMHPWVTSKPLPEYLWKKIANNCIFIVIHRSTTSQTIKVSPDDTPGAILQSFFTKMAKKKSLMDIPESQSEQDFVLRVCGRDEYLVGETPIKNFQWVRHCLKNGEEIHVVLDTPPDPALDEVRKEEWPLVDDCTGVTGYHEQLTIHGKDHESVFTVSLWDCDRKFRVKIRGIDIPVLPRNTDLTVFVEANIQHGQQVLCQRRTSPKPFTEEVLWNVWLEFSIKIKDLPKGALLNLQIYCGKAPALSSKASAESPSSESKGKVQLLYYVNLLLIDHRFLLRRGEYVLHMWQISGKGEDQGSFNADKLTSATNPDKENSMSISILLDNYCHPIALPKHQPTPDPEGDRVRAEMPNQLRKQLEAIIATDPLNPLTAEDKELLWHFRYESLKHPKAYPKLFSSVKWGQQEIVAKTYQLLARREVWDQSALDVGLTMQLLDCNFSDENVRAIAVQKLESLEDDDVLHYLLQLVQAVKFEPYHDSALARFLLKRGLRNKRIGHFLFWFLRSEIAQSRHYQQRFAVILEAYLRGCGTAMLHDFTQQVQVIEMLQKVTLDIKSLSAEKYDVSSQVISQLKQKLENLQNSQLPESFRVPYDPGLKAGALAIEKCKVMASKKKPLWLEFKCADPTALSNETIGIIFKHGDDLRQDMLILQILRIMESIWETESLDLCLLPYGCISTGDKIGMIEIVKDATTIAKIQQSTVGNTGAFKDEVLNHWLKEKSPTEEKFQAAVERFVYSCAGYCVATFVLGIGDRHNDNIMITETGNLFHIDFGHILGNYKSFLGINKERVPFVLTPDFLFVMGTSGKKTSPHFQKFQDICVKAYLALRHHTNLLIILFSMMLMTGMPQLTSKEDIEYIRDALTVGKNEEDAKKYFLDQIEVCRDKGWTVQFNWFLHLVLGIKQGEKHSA

[3] = target: T1, Phosphatidylinositol 4,5-bisphosphate 3-kinase catalytic subunit gamma isoform; test: Inhibition of PI3Kgamma (unknown origin) using PIP2 as substrate preincubated for 1 hr followed by substrate addition and measured after 60 mins in presence of ATP by ADP-glo assay
Target sequence in this assay (P48736 whole entry, canonical isoform): as above

[4] = Metabolic stability in human hepatocytes assessed as intrinsic clearance per 10^6 cells at 0.5 uM by LC-MS/MS analysis; type: ADME, cell-based, Hepatocyte; conditions: read-out: CLH
[5] = Metabolic stability in rat hepatocyte assessed as intrinsic clearance per 10^8 cells at 0.5 uM by LC-MS/MS analysis; type: ADME, cell-based; conditions: hepatocytes
[6] = target: T2, Phosphatidylinositol 4,5-bisphosphate 3-kinase catalytic subunit delta isoform (Homo sapiens, UniProt O00329); test: Inhibition of PI3Kdelta (unknown origin) using PIP2 as substrate preincubated for 1 hr followed by substrate addition and measured after 60 mins in presence of ATP by ADP-glo assay
T2 sequence (O00329 whole entry): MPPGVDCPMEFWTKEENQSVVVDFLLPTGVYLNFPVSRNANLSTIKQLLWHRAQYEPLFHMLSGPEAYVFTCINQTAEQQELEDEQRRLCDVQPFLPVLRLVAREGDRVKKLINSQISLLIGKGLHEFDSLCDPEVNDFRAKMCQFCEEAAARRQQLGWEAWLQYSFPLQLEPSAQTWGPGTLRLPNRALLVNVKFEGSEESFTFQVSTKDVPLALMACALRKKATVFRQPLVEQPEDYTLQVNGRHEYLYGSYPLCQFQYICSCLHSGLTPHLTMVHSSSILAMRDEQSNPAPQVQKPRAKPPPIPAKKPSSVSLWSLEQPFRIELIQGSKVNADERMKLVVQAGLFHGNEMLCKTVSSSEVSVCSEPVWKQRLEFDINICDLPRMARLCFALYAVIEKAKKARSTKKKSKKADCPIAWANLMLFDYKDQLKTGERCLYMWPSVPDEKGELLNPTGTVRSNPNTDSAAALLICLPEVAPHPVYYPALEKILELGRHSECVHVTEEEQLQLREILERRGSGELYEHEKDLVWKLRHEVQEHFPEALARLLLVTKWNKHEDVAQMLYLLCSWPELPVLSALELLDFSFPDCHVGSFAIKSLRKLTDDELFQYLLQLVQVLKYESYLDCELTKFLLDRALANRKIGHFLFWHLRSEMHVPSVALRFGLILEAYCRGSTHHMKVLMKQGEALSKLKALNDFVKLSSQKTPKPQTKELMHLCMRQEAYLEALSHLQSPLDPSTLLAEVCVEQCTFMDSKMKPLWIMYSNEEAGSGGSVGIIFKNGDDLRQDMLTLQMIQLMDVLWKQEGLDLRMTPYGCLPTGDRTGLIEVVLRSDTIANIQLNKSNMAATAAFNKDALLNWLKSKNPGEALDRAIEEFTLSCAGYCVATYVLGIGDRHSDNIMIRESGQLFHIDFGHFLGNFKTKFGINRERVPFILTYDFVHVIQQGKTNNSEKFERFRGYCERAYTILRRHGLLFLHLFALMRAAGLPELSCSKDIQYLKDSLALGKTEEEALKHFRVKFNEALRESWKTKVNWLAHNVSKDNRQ

[7] = target: Phosphatidylinositol 4,5-bisphosphate 3-kinase catalytic subunit beta isoform (Homo sapiens, UniProt P42338); test: Inhibition of PI3Kbeta (unknown origin) using PIP2 as substrate preincubated for 1 hr followed by substrate addition and measured after 60 mins in presence of ATP by ADP-glo assay
Sequence of Phosphatidylinositol 4,5-bisphosphate 3-kinase catalytic subunit beta isoform (P42338 whole entry, canonical isoform): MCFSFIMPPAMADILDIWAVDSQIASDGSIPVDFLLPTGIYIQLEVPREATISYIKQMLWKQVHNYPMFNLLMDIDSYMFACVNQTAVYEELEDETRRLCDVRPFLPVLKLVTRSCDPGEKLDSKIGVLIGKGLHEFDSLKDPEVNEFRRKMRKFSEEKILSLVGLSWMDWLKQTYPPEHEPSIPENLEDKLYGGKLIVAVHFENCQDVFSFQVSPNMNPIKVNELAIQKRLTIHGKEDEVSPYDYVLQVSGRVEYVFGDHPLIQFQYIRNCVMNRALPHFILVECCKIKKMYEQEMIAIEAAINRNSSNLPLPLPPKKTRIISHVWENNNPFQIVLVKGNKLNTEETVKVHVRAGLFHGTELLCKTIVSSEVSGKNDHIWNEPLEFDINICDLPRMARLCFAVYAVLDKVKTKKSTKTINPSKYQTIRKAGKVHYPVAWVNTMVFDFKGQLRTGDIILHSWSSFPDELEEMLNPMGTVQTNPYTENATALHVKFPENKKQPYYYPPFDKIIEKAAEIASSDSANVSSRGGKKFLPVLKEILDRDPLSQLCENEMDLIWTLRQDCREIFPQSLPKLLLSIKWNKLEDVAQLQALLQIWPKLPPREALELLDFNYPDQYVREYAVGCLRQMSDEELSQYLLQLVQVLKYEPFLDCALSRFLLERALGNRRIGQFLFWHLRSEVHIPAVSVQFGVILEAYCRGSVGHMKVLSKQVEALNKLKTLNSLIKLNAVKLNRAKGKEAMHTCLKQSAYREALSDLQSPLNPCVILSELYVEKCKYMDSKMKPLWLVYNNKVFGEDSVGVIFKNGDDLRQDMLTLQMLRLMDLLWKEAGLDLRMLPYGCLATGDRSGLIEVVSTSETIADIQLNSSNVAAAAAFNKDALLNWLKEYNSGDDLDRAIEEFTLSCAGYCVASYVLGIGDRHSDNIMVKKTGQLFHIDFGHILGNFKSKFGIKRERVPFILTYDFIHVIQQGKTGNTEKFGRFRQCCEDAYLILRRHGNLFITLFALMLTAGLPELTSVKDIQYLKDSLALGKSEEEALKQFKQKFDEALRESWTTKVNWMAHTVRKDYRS

hERG = hERG (Homo sapiens, UniProt Q12809); test: Inhibition of human ERG at 10 uM by patch clamp assay relative to control; type: toxicity
Sequence of hERG (Q12809 whole entry): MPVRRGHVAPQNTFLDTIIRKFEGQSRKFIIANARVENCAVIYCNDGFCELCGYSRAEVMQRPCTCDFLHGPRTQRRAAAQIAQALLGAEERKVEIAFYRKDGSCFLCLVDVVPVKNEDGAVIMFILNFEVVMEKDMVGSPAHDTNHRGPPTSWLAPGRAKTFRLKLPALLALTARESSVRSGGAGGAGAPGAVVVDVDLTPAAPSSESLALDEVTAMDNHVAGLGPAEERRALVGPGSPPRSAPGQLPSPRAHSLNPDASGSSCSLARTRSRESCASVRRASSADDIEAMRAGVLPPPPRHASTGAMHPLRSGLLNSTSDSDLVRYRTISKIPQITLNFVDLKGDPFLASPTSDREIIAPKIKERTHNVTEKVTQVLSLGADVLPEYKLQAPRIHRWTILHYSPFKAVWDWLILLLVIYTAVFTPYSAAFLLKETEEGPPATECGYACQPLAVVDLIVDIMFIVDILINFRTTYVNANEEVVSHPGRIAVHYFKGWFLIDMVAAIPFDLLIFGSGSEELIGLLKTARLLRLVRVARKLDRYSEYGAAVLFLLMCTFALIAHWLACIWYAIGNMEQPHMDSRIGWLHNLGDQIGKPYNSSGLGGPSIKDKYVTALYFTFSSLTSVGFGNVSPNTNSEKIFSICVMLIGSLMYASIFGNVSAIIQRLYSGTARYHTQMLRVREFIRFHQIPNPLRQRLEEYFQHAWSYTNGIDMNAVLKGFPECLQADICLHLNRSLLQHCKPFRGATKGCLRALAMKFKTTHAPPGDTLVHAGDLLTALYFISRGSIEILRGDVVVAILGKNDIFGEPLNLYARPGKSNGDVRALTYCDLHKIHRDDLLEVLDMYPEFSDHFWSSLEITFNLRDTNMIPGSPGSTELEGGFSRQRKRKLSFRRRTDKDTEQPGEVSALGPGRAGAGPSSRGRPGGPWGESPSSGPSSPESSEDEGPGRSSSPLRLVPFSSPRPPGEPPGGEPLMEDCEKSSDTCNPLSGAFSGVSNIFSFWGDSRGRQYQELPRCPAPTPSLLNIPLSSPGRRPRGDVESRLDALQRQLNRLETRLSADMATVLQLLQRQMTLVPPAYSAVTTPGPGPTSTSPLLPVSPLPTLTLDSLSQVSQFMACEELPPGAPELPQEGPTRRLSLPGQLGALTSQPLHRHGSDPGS

[8] = Plasma protein binding in Beagle dog at 1 mg/kg, iv; type: ADME, organism-based, Canis lupus familiaris; conditions: read-out: PPB (converted)
[9] = Plasma protein binding in cynomolgus monkey at 1 mg/kg, iv; type: ADME, organism-based, Macaca fascicularis; conditions: read-out: PPB (converted)
[10] = Clearance in Sprague-Dawley rat at 1 mg/kg, iv measured up to 8 hrs by LC-MS/MS analysis; type: ADME, organism-based; conditions: in vivo
[11] = Clearance in Beagle dog at 1 mg/kg, iv; type: ADME, organism-based, Canis lupus familiaris; conditions: in vivo
[12] = Volume of distribution at steady state in C57BL/6 mouse at 0.5 mg/kg, iv; type: ADME, organism-based; conditions: in vivo
[13] = Volume of distribution at steady state in Sprague-Dawley rat at 1 mg/kg, iv measured up to 8 hrs by LC-MS/MS analysis; type: ADME, organism-based; conditions: in vivo
[14] = Volume of distribution at steady state in Beagle dog at 1 mg/kg, iv; type: ADME, organism-based, Canis lupus familiaris; conditions: in vivo
[15] = Half life in Beagle dog at 1 mg/kg, iv; type: ADME, organism-based, Canis lupus familiaris; conditions: in vivo
[16] = Half life in cynomolgus monkey at 1 mg/kg, iv; type: ADME, organism-based, Macaca fascicularis; conditions: in vivo
[17] = MRT (infinity) in Sprague-Dawley rat at 1 mg/kg, iv measured up to 8 hrs by LC-MS/MS analysis; type: ADME, organism-based; conditions: in vivo
[18] = MRT (infinity) in Beagle dog at 1 mg/kg, iv; type: ADME, organism-based, Canis lupus familiaris; conditions: in vivo
[19] = MRT (infinity) in cynomolgus monkey at 1 mg/kg, iv; type: ADME, organism-based, Macaca fascicularis; conditions: in vivo
[20] = AUC(0 to infinity) in Sprague-Dawley rat at 1 mg/kg, iv measured up to 8 hrs by LC-MS/MS analysis; type: ADME, organism-based; parameters: dose 1 mg/kg, time < 8 hrs, route iv; conditions: in vivo
[21] = AUC(0 to infinity) in Beagle dog at 1 mg/kg, iv; type: ADME, organism-based, Canis lupus familiaris; parameters: time infinity, dose 1 mg/kg, route iv; conditions: in vivo
[22] = AUC(0 to infinity) in cynomolgus monkey at 1 mg/kg, iv; type: ADME, organism-based, Macaca fascicularis; parameters: time infinity, dose 1 mg/kg, route iv; conditions: in vivo
[23] = AUC(0 to infinity) in Sprague-Dawley rat at 10 mg/kg, po measured up to 24 hrs by LC-MS/MS analysis analysis; type: ADME, organism-based; parameters: dose 10 mg/kg, time < 24 hrs, route po; conditions: in vivo
[24] = Oral bioavailability in Sprague-Dawley rat at 10 mg/kg measured up to 24 hrs by LC-MS/MS analysis; type: ADME, organism-based; conditions: in vivo
[25] = target: T1, Phosphatidylinositol 4,5-bisphosphate 3-kinase catalytic subunit gamma isoform; test: Inhibition of P13Kgamma in LPS and IFNgamma stimulated human M1 macrophage assessed as increase in IL1B expression at 1 uM pretreated for 1 hr followed by LPS and IFNgamma stimulation by qRT-PCR analysis; type: cell-based
Target sequence in this assay (P48736 whole entry, looked up, canonical isoform): as the sequence (P48736 whole entry, canonical isoform) above

[26] = target: T1, Phosphatidylinositol 4,5-bisphosphate 3-kinase catalytic subunit gamma isoform; test: Inhibition of P13Kgamma in LPS and IFNgamma stimulated human M1 macrophage assessed as increase in IL6 expression at 1 uM pretreated for 1 hr followed by LPS and IFNgamma stimulation by qRT-PCR analysis; type: cell-based
Target sequence in this assay (P48736 whole entry, looked up, canonical isoform): as the sequence (P48736 whole entry, canonical isoform) above

[27] = target: T1, Phosphatidylinositol 4,5-bisphosphate 3-kinase catalytic subunit gamma isoform; test: Inhibition of P13Kgamma in LPS and IFNgamma stimulated human M1 macrophage assessed as increase in TNFA expression at 1 uM pretreated for 1 hr followed by LPS and IFNgamma stimulation by qRT-PCR analysis; type: cell-based
Target sequence in this assay (P48736 whole entry, looked up, canonical isoform): as the sequence (P48736 whole entry, canonical isoform) above

[28] = Metabolic stability in human hepatocytes assessed as parent compound remaining at 0.5 uM measured after 2 hrs by LC-MS/MS analysis; type: ADME, cell-based, Hepatocyte
[29] = Metabolic stability in human hepatocytes assessed as parent compound remaining at 0.5 uM measured after 4 hrs by LC-MS/MS analysis; type: ADME, cell-based, Hepatocyte; conditions: read-out: Stability

| Compound | MRT inf [1] | IC50 [2] | IC50 [3] | hepatocyte CLint at 0.5 µM [4] | hepatocyte intrinsic clearance [5] | IC50 [6] | IC50 [7] | inhibition at 10 µM (hERG) | fraction unbound [8] | fraction unbound [9] | clearance [10] | clearance [11] | Vdss [12] | Vdss [13] | Vdss [14] | half-life [15] | half-life [16] | MRT inf [17] | MRT inf [18] | MRT inf [19] | also measured |
| --- | --- | --- | --- | --- | --- | --- | --- | --- | --- | --- | --- | --- | --- | --- | --- | --- | --- | --- | --- | --- | --- |
| C[C@@H](C1CC1)N1Cc2cc(-c3ccn4nc(N)c(C(=O)N[C@H]5CC[C@@](C)(O)CC5)c4n3)cc(OC(F)(F)F)c2C1=O | 2.03 h | 0.038 µM | 0.0028 µM | < 1.2 µL/min/1e6 cells | 6.07 µL/min | 1.65 µM | 29.3 µM | 5% | 0.048 | 0.05 | 20.8 mL/min/kg | 14 mL/min/kg | 2.09 L/kg | 2.91 L/kg | 3.24 L/kg | 3.5 h | 3.65 h | 2.33 h | 3.85 h | 3.58 h | AUC(0-inf) [20]: 797 ng·h/mL; AUC(0-inf) [21]: 1240 ng·h/mL; AUC(0-inf) [22]: 949 ng·h/mL; AUC(0-inf) [23]: 249 ng·h/mL; bioavailability [24]: 4%; inhibition [25]: Active; inhibition [26]: Active; inhibition [27]: Active; Stability [28]: 58%; remaining at 4 h, 0.5 µM [29]: > 95% |
| C[C@@H](C1CC1)N1Cc2cc(-c3ccn4nc(N)c(C(=O)N[C@H]5CC[C@@](C)(O)CC5)c4n3)cc(OC(F)F)c2C1=O | 1.87 h | 0.034 µM | 0.0019 µM | < 1.2 µL/min/1e6 cells | 2.62 µL/min | 1.08 µM | 9.21 µM | 17% | 0.034 | 0.034 | 27.5 mL/min/kg | 9.67 mL/min/kg | 1.66 L/kg | 3.03 L/kg | 3.55 L/kg | 4.85 h | 3.18 h | 1.86 h | 5.92 h | 3.41 h | AUC(0-inf) [20]: 630 ng·h/mL; AUC(0-inf) [21]: 1800 ng·h/mL; AUC(0-inf) [22]: 925 ng·h/mL; AUC(0-inf) [23]: 8160 ng·h/mL; bioavailability [24]: 102%; inhibition [25]: Active; inhibition [26]: Active; inhibition [27]: Active; Stability [28]: 94%; remaining at 4 h, 0.5 µM [29]: > 95% |
